Measurements from ChEMBL document CHEMBL3826929, “Discovery and Preclinical Evaluation of BMS-711939, an Oxybenzylglycine Based PPARα Selective Agonist” (ACS Med Chem Lett, 2016).
Values after ≈ are worked out from the molar mass of the structure shown.

Assays:
[1] = system: Syrian golden hamster; assay: Decrease in liver cholesterol level in high fat-diet fed syrian golden hamster model of dyslipidemia at 1 mg/kg administered qd through oral gavage measured after 21 days by FPLC analysis relative to control; assay type: functional, Mesocricetus auratus; design: scale not given: the % may be the effect or the level left
[2] = system: Syrian golden hamster; assay: Decrease in plasma triglyceride level in high fat-diet fed syrian golden hamster model of dyslipidemia at 10 mg/kg administered qd through oral gavage measured after 21 days by FPLC analysis relative to control; assay type: functional, Mesocricetus auratus; design: scale not given: the % may be the effect or the level left
[3] = AUC (0 to 8 hrs) in Balb/c mouse at 10 mg/kg, po; assay type: ADME, organism-based; design: dose 10 mg/kg, time < 8 hr, route oral; conditions: in vivo
[4] = AUC (0 to 8 hrs) in Sprague-Dawley rat at 8 mg/kg, po; assay type: ADME, organism-based; design: time < 8 hr, dose 8 mg/kg, route oral; conditions: in vivo
[5] = Plasma clearance in Balb/c mouse at 5 mg/kg, iv; assay type: ADME, organism-based
[6] = Plasma clearance in cynomolgus monkey at 1 mg/kg, iv; assay type: ADME, organism-based, Macaca fascicularis
[7] = Half life in Balb/c mouse at 5 mg/kg, iv; assay type: ADME, organism-based; conditions: in vivo
[8] = Oral bioavailability in dog at 2 mg/kg; assay type: ADME, organism-based, Canis lupus familiaris; conditions: in vivo
[9] = molecular target: Retinoid X receptor (Homo sapiens, UniProt P28702+P48443+P19793); assay: Agonist activity at human RXR by transactivation assay; assay type: protein assay
[10] = molecular target: Liver X receptor (Homo sapiens) (UniProt Q13133+P55055); assay: Agonist activity at human LXR by transactivation assay relative to standard compound; assay type: protein assay
[11] = molecular target: Glucocorticoid receptor (Homo sapiens) (UniProt P04150); assay: Agonist activity at human GR by transactivation assay relative to standard compound
[12] = Protein binding in human plasma; assay type: ADME, cell-free; conditions: read-out: PPB (converted)
[13] = molecular target: Cytochrome P450 3A4 (Homo sapiens, UniProt P08684); assay: Inhibition of CYP3A4 (unknown origin); assay type: ADME
[14] = molecular target: Cytochrome P450 2C8 (Homo sapiens, UniProt P10632); assay: Inhibition of CYP2C8 (unknown origin); assay type: ADME
[15] = molecular target: Cytochrome P450 2C9 (Homo sapiens, UniProt P11712); assay: Inhibition of CYP2C9 in human TC5 cells; assay type: ADME, cell-based
[16] = species: Homo sapiens; assay: Inhibition of sodium channel (unknown origin) assessed as channel block at 10 uM and 1 Hz by electrophysiology method
[17] = species: Homo sapiens; assay: Inhibition of sodium channel (unknown origin) assessed as channel block at 10 uM and 4 Hz by electrophysiological method
[18] = system: Rhesus monkey; assay: Cardiovascular toxicity in monkey assessed as change in electrocardiographic effect up to 20 mg/kg administered as single dose by telemetry test; assay type: organism-based, Macaca mulatta; conditions: in vivo
[19] = Aqueous solubility of the compound at pH 7.2; assay type: physicochemical; conditions: buffer
[20] = system: Mus musculus; assay: Increase in ApoA1 level in transgenic mouse expressing human ApoA1 at 3 mg/kg administered qd through oral gavage measured after 10 days relative to vehicle-treated control; assay type: functional
[21] = system: Mus musculus; assay: Increase in HDL cholesterol level in transgenic mouse expressing human ApoA1 compound administered qd through oral gavage measured after 10 days; assay type: functional, organism-based

Sequence of Cytochrome P450 3A4 (P08684 whole entry): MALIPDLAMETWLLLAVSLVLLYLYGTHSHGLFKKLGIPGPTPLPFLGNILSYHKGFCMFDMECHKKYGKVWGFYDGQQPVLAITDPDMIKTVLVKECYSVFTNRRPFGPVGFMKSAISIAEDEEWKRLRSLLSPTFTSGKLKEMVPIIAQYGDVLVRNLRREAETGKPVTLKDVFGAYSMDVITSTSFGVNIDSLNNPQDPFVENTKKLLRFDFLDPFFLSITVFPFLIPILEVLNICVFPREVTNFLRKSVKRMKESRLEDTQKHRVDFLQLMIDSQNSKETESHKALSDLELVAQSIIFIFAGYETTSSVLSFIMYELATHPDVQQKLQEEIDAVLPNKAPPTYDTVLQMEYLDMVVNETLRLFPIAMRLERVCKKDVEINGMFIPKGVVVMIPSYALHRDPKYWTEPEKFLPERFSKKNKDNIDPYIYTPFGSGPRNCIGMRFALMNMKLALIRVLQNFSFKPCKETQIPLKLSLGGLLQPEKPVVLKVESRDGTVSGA
Sequence of Glucocorticoid receptor (Homo sapiens) (P04150 whole entry): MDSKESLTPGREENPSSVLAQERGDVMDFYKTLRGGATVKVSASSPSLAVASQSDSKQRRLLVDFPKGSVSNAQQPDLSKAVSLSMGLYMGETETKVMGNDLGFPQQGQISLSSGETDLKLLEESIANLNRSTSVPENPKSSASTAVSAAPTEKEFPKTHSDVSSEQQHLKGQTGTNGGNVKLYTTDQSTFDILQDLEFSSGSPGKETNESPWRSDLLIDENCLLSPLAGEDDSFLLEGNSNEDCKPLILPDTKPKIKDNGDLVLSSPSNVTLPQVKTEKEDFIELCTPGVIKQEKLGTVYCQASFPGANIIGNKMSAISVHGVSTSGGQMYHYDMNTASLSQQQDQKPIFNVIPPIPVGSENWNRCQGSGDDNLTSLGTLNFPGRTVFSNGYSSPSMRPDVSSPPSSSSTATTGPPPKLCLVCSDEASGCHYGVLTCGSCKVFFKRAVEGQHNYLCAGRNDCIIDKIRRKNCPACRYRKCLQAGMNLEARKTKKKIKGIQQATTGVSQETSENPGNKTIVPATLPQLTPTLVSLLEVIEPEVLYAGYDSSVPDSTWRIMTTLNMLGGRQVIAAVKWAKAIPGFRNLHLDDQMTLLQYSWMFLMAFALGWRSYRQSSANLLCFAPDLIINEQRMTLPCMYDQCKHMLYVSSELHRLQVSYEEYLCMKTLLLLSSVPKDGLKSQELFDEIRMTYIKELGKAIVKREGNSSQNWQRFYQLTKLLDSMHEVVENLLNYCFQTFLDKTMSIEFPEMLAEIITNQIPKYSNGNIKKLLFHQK
Sequence of Cytochrome P450 2C9 (P11712 whole entry): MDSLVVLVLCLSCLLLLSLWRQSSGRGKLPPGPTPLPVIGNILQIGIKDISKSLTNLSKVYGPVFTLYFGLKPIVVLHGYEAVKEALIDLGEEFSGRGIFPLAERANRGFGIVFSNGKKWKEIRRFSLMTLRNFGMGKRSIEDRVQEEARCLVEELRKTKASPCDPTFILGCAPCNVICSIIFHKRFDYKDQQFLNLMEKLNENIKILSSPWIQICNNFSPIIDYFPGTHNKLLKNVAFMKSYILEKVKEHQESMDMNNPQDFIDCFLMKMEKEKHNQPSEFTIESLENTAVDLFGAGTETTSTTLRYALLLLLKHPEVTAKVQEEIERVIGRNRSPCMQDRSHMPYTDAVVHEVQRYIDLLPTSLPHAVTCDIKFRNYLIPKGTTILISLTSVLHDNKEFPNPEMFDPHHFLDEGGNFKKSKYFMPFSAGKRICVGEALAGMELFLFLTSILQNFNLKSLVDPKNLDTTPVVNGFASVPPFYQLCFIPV
Sequence of Cytochrome P450 2C8 (P10632 whole entry): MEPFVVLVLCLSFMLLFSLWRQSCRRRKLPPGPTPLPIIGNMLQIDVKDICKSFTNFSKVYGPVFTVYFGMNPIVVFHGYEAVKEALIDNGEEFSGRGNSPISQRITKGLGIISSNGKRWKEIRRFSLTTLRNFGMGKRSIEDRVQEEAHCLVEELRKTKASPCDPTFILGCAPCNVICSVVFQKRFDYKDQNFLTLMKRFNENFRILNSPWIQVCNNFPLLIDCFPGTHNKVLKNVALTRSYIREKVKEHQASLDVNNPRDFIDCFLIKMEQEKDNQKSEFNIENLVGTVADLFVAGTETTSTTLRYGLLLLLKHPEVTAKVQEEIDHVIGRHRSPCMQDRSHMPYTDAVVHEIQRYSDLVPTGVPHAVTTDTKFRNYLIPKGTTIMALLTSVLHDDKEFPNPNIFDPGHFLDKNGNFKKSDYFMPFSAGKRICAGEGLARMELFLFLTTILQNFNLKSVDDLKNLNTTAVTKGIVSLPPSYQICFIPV

- AUC(0-t) at 8 h [3]: 17 µM·h
- AUC(0-t) at 8 h [4]: 32 µM·h
- clearance [5]: 13.8 mL/min/kg
- clearance [6]: 5.9 mL/min/kg
- half-life [7]: 1.8 h
- bioavailability [8]: 59%
- EC50 [9]: > 25 µM
- Efficacy [10]: < 15%
- Efficacy [11]: < 15%
- fraction unbound [12]: 0.003
- IC50 [13]: > 40 µM
- IC50 [14]: > 40 µM
- inhibition [16]: 12%
- inhibition [17]: 14%
- solubility [19]: 367 µg/mL (≈ 793 µM)
Compound: COC(=O)N(CC(=O)O)Cc1cc(OCc2nc(-c3ccc(Cl)cc3)oc2C)ccc1F
- Activity [1]: 13%
- Activity [2]: 85%
- IC50 [15]: > 150 µM
- Activity [18]: Non-toxic
- Activity [20]: 96%
- Activity [21]: Dose-dependent effect
